Measured values from patent US20130261066A1, “TREATMENT OF INFLAMMATORY BOWEL DISEASES USING A TRIPEPTIDE” (THE RESEARCH FOUNDATION OF STATE UNIVERSITY OF NEW YORK, priority 2010, published 2013).

Tested on: NF-kB
Test: Inhibition of NF-kB by D-amino-acid and cyclized peptides
Text: The following acetylated peptides, composed of D amino acids, were synthesized and tested for inhibition of NF-kB: 1) Ac-dGln-dALa-dTrp (SEQ ID NO:9); and 2) Ac-dPhe-dLeu-dLys-dGln-dALa-dTrp (SEQ ID NO:10). […] The following acetylated peptide, cyclized through its N- and C-terminals, was synthesized and tested for inhibition of NF-kB: Ac-Phe-Leu-Lys-Gln-Ala-Trp (SEQ ID NO:6).

| Substance | inhibition of NF-kB |
| --- | --- |
| Ac-dPhe-dLeu-dLys-dGln-dALa-dTrp | effective inhibition of NF-kB |
| Ac-dGln-dALa-dTrp | effective inhibition of NF-kB |
| Ac-Phe-Leu-Lys-Gln-Ala-Trp (Ac-cyclo(FLKQAW)) | effective inhibition of NF-kB |
